1 compound from ChEMBL document CHEMBL5029145, “Discovery of AZD8154, a Dual PI3Kγδ Inhibitor for the Treatment of Asthma” (J Med Chem, 2021) can be followed below.

By IC50 is commonly meant the concentration that inhibits the measured activity by half.

SMILES strings stand for the structures.

Assay [1] concerns the target T1, Phosphatidylinositol 4,5-bisphosphate 3-kinase catalytic subunit delta isoform (Homo sapiens, UniProt O00329).
T1 sequence (O00329 whole entry): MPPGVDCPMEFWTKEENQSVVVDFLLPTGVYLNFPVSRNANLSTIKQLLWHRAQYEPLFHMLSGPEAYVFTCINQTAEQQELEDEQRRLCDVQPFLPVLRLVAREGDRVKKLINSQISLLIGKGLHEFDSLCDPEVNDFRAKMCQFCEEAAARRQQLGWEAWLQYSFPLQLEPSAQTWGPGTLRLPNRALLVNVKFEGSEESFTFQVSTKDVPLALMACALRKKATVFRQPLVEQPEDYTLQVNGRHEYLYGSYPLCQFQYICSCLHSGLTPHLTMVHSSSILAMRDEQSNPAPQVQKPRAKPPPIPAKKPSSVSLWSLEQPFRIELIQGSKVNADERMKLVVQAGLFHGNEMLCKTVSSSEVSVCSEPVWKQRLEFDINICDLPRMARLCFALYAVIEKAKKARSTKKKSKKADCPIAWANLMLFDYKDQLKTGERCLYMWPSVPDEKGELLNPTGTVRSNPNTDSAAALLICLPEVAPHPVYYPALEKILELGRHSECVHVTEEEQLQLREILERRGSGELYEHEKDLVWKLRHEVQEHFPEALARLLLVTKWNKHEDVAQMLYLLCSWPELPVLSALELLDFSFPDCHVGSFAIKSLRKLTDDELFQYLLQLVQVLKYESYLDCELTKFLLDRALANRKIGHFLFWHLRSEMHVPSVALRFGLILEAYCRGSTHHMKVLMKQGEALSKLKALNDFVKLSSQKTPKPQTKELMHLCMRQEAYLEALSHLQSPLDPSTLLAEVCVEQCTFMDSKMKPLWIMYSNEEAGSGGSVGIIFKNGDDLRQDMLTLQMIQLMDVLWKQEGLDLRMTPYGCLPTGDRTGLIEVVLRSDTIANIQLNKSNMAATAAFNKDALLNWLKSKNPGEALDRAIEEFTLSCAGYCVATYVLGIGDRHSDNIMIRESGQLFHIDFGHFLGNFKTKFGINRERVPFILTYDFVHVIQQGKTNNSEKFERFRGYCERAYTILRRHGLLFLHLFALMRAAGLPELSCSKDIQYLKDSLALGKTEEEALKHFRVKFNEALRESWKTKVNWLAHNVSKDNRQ
Nature of the assay: Inhibition of PI3Kdelta in anti-IgM-stimulated human JeKo-1 cells assessed as inhibition of AKT phosphorylation at Ser473 residue incubated for 60 mins by TR-FRET assay. (In general: TR-FRET usually uses a lanthanide donor and a delayed reading to cut background.)

Assay [2] has as its target T2, Phosphatidylinositol 3-kinase C2 domain-containing subunit gamma (Homo sapiens, UniProt O75747).
T2 sequence (O75747 whole entry): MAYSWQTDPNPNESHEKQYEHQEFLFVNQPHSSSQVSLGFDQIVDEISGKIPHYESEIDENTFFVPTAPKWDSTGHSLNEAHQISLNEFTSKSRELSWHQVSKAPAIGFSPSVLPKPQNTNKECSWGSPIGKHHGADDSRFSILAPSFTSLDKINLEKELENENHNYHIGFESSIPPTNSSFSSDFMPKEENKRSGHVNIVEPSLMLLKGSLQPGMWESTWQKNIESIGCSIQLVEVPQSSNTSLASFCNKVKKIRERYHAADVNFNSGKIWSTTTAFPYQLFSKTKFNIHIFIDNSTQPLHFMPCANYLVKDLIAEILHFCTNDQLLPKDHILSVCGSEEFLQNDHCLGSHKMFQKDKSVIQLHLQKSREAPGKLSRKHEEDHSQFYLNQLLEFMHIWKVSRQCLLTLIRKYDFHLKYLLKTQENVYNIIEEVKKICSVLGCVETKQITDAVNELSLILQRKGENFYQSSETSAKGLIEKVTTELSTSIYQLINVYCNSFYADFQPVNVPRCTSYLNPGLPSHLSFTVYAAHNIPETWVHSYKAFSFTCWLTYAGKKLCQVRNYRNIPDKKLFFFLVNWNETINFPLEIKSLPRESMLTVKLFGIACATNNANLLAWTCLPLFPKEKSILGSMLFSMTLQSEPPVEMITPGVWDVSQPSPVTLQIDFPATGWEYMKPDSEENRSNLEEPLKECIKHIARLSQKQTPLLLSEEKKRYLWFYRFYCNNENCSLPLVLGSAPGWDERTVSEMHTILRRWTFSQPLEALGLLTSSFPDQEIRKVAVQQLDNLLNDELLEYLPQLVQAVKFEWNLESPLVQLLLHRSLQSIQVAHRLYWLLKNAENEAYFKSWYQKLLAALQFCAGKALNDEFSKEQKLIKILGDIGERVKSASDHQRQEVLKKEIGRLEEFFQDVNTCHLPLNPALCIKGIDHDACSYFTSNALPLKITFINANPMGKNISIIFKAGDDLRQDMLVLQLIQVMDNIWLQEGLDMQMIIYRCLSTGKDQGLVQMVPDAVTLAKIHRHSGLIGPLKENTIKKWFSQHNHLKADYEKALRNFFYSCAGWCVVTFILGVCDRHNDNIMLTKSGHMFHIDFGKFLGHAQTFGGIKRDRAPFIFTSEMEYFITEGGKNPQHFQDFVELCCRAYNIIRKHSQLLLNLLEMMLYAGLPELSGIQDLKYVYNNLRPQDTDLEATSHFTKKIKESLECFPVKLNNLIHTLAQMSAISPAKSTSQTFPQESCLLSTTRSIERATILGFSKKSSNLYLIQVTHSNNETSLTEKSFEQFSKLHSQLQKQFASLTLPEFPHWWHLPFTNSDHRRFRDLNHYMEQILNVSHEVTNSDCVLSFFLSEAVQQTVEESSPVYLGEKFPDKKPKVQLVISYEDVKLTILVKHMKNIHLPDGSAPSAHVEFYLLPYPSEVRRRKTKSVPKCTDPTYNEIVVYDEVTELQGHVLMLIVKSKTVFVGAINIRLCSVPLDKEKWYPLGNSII
Nature of the assay: Inhibition of PIK3C2G (unknown origin) assessed as reduction in substrate phosphorylation by FRET Adapta assay.

With `Cc1nc(Nc2cccc(N3CCCC3=O)n2)sc1-c1cc2c(c(S(C)(=O)=O)c1)C(=O)N([C@@H](C)C1CC1)C2` [AZD-8154], the 50% inhibitory concentration (IC50) is 3.98 nM in assay [1] and 63.1 nM in assay [2].
